The results in this text go back to ChEMBL document CHEMBL2331518, “Rapid microwave-enhanced synthesis of C5-alkynyl pyranonucleosides as novel cytotoxic antitumor agents” (Bioorg Med Chem Lett, 2013).

Assay [1] has as its system Human immunodeficiency virus 2. The experiment in a line: Antiviral activity against HIV2 ROD infected in human CEM cells assessed as reduction of virus-induced cytopathicity after 4 to 5 days. It is filed as functional, organism-based. The note with it: ISOLATE ROD, CCRF-CEM.
For assay [2], the system named is Human immunodeficiency virus 1. The experiment in a line: Antiviral activity against HIV1 3B infected in human CEM cells assessed as reduction of virus-induced cytopathicity after 4 to 5 days. It is filed as functional, organism-based. The settings on record: CCRF-CEM.
Another assay relates to Punta Toro virus. The experiment in a line: Antiviral activity against Punta Toro virus by cell based assay. The format is functional, organism-based.
In assay [3] the test system is Mammalian orthoreovirus 1. Nature of the assay: Antiviral activity against Reovirus-1 by cell based assay. The format is functional, organism-based.
Another assay concerns Influenza B virus. The experiment in a line: Antiviral activity against Influenza B virus by cell based assay. The format is functional, organism-based.
Assay [4] has as its system Influenza A virus. Nature of the assay: Antiviral activity against Influenza A virus H3N2 by cell based assay. It is filed as functional, organism-based.
The next assay deals with Sindbis virus. The experiment in a line: Antiviral activity against Sindbis virus by cell based assay. The format is functional, organism-based.
Assay [5] concerns Influenza A virus. The experiment in a line: Antiviral activity against Influenza A virus H1N1 by cell based assay. The format is functional, organism-based.
The test system of the next assay is Human respirovirus 3. Nature of the assay: Antiviral activity against Parainfluenza-3 virus by cell based assay. It is filed as functional, organism-based.
The subject of another assay is Coxsackievirus B4. Nature of the assay: Antiviral activity against Coxsackie virus B4 by cell based assay. It is filed as functional, organism-based.
In assay [6] the test system is Vesicular stomatitis virus. Nature of the assay: Antiviral activity against Vesicular stomatitis virus by cell based assay. It is filed as functional, organism-based.
Assay [7] has as its system Respiratory syncytial virus. Nature of the assay: Antiviral activity against Respiratory syncytial virus Long by cell based assay. The format is functional, organism-based.
The test system of a further assay is Vaccinia virus. The experiment in a line: Antiviral activity against Vaccinia virus Lederle by cell based assay. The note with it: Orthopoxvirus vaccinia. The format is functional, organism-based.
Assay [8] relates to Human alphaherpesvirus 2. The experiment in a line: Antiviral activity against HSV-2 G by cell based assay. The format is functional, organism-based. The note with it: strain G.
Assay [9] concerns Human alphaherpesvirus 1. Nature of the assay: Antiviral activity against kinase-deficient acyclovir-resistant HSV-1 KOS by cell based assay. It is filed as functional, organism-based.
The subject of assay [10] is Human alphaherpesvirus 2. The experiment in a line: Antiviral activity against HSV-2 Lyons by cell based assay. The format is functional, organism-based.
For assay [11], the system named is Human alphaherpesvirus 1. Nature of the assay: Antiviral activity against HSV-1 KOS by cell based assay. It is filed as functional, organism-based.
The test system of the next assay is HeLa. The experiment in a line: Cytotoxicity against human HeLa cells after 72 hrs. It is filed as functional, cell-based.
For another assay, the system named is L1210. Nature of the assay: Cytotoxicity against mouse L1210 cells after 48 hrs. The format is functional, cell-based. The settings on record: L1210, 48 h.
In another assay the test system is CCRF-CEM. The experiment in a line: Cytotoxicity against human CEM cells after 72 hrs. It is filed as functional, cell-based.

Activity calls are given as the source filed them. The rule behind the calls is not given here.

On to `CCCCCc1cc2cn([C@@H]3O[C@H](CO)[C@@H](O)[C@H](O)[C@H]3O)c(=O)nc2o1`, for which the outcome (in [1]; in assay [2]; with Punta Toro virus; in assay [3]; in the assay on Influenza B virus; in the assay with Influenza A virus [4]) was inactive. Besides, the outcome (in the assay on Sindbis virus; with Influenza A virus [5]; with Human respirovirus 3; in the assay on Coxsackievirus B4; in [6]; in assay [7]) was inactive. Further, the outcome in the assay on Vaccinia virus, in the assay with Human alphaherpesvirus 2 [8], in the assay with Human alphaherpesvirus 1 [9], with Human alphaherpesvirus 2 [10] and in the assay with Human alphaherpesvirus 1 [11] was inactive. In addition, the IC50 is over 250 µM in the assay on HeLa, at least 250 µM with L1210 and over 250 µM with CCRF-CEM.
Take `O=c1[nH]c(=O)n([C@@H]2O[C@H](CO)[C@@H](O)[C@H](O)[C@H]2O)cc1C#Cc1cccnc1`: the outcome (in assay [1]; in [2]; in the assay with Punta Toro virus; in assay [3]; with Influenza B virus; in the assay on Influenza A virus [4]) was inactive. Besides, the result (in the assay on Sindbis virus; in the assay with Influenza A virus [5]; with Human respirovirus 3; in the assay with Coxsackievirus B4; in assay [6]; in assay [7]) was inactive. The outcome with Vaccinia virus, with Human alphaherpesvirus 2 [8], in the assay with Human alphaherpesvirus 1 [9], with Human alphaherpesvirus 2 [10] and with Human alphaherpesvirus 1 [11] was inactive. Moreover, the half-maximal inhibitory concentration (IC50) with HeLa, with L1210 and with CCRF-CEM was over 250 µM in each case.
